Patent US10308649B2, “Compounds and methods to suppress autoimmune response” (Oregon State University, priority 2014, dated 2019)

What was measured:
[1] = Serum pharmacokinetics after i.p. injection; conditions: mouse
Procedure: FIGS. 13a and 13b show the pharmacokinetics of AHRL1. To determine the half-life of AHRL1, mice were treated with a single intraperitoneal injection of the chemical, and serum concentrations were measured over time by mass spectrometry. In FIG. 13a, C57BL/6 mice were given 10 mg/kg AHRL1 by i.p. injection. Blood was collected at the indicated times by cardiac puncture. The blood serum was processed to remove protein and the samples were analyzed by QTRAP 4000 LC/MS/MS. The blood serum concentration of AHRL1 was determined from a standard curve based on known concentrations of AHRL1.
Based on the model, the serum half-life of AHRL1 is approximately 2 hours. Additional kinetic parameters include the absorption rate constant (ka) which was 1.2 h^−1. […] The area under the concentration-time curve (AUC0-∞) was 102.5 mg/L*h.

AhR [2] = test: XRE-luciferase reporter gene in Hepa-1 cells expressing endogenous AhR; assay type: cell-based, mouse; conditions: for XRE-luciferase reporter activity, in words: 16 hours after treating; for fold activation of AhR (reporter gene activity): 10 nM, 12 hours
Procedure: FIGS. 9a-9f illustrate activity studies for 10-Cl-BBQ, 11-Cl-BBQ, and combinations thereof. Hepa-1 cells expressing endogenous AhR were transfected with a xenobiotic responsive element (XRE)-luciferase reporter gene. […] The activity was measured 16 hours after treating the cells with the various concentrations.
The reporter gene activity was measured after 12 hours of treatment with TCDD at a concentration of 1 nM or with the indicated concentrations of AHRL1.
Hepa-1 cells expressing endogenous AhR were transfected with a XRE-luciferase reporter gene. […] The mean luciferase activity is shown with SEM.

AhR [3] = molecular target: T1, AhR (Mus musculus, UniProt P30561); test: Competitive inhibition of [3H] 3-MC binding to AhR; conditions: for fold lower / less active than TCDD: relative to IC50 of TCDD
T1 sequence (P30561 10-848): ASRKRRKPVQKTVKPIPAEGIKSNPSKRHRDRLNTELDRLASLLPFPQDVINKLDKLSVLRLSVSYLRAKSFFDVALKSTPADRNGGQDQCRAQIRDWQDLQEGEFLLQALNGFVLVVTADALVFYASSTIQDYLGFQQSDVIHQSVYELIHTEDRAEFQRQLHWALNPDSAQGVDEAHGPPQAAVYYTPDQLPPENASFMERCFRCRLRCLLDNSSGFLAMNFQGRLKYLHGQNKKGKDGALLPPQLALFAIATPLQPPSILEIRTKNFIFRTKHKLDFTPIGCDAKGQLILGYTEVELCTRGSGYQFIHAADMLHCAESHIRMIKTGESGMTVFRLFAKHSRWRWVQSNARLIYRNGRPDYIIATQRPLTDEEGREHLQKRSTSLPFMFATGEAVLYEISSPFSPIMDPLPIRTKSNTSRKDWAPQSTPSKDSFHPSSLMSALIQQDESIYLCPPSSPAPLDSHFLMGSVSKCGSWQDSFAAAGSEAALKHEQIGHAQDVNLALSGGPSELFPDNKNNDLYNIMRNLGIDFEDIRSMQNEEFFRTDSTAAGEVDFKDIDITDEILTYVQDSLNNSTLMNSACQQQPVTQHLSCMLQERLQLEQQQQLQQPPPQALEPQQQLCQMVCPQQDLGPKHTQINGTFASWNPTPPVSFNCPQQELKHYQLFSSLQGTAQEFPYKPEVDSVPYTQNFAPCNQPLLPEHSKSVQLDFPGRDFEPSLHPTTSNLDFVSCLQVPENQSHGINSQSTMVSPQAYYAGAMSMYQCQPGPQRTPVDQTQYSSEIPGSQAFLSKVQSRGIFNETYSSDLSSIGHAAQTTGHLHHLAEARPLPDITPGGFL
From the text: 3-MC binding to AhR. […] 3-methylcholanthrene (3-MC) to AhR.

donor CD4+ T cells = test: Acute graft versus host model: Treg phenotype of alloactivated donor CD4+ T cells; assay type: in vivo, mouse; conditions: 10 mg/kg day 0 and day 1, day 2, p-value=0.05
Procedure: FIGS. 14a-14i show AHRL1 induces an AhR-dependent Treg phenotype by a mechanism that is mediated by the AhR in donor CD4+ T cells. The AhR-induced Tregs were identified as the CD4+CD25+CTLA-4+CD62L^low population of T cells. To determine if AHRL1 induced changes in donor CD4+ T cells, AHRL1 was compared with TCDD and the vehicle. On day 0, B6D2F1 host mice in groups of 5 were injected with CFSE-labeled C57BL/6 (H-2^b/b) T cells and given 15 mg/kg of AHRL1, 15 μg/kg of TCDD, or vehicle by i.p. injection. At 24 hours, an additional dose of 7 mg/kg of AHRL1 or vehicle was given. Mice that were treated with TCDD at the time of donor cell transfer were used as positive controls. Splenocytes were isolated on day 2 for phenotypic analysis of the alloresponsive (CFSE-diluted) donor CD4+ T cells. Splenocytes were harvested from the host mice and the CD4+ T cells were identified by flow cytometry.
On day 0, B6D2F1 host mice in groups of 5 were injected with donor T cells obtained from AhR^+/+ or AhR-deficient (AhR^−/−) C57BL/6 mice. Host mice were treated with 2 mg/kg of AHRL1 or vehicle immediately following donor cell transfer and again at 24 hours. […] Thus, the AhR in the CD4+ T cell is the primary target driving the AhR-Treg phenotype.
On day 0, B6D2F1 host mice in groups of 3-5 were injected with C57BL/6 T cells. Mice were immediately treated with 0 mg/kg, 0.4 mg/kg, 2 mg/kg, or 10 mg/kg of AHRL1 and again on day 1. On day 2, expression of markers associated with the AhR-Treg phenotype increased as the dose of AHRL1 increased. Further, dosing generally correlated with degree of activation of AhR as reflected by CYP1A1, CYP1B1, and AHRR expression in lymph nodes from the same mice. The asterisk (*) indicates a p-value of 0.05 relative to vehicle treatment.
FIGS. 16c and 16d show expression of phenotypic markers, CD25+ICOS+CD62L^low and CD25+CTLA-4+, associated with AhR-Tregs in mice treated with AHRL1. Host mice were treated with 10 mg/kg of AHRL1, 11-Cl-BBQ analog, or vehicle on day 0 and day 1 following donor cell transfer. On day 2, the alloactivated CD4+ donor T cells were identified based on CFSE dilution. The percentage of donor cells in each group expressing the Treg markers were derived from flow histograms. The data represents mean±SEM of 5 mice per treatment. […] Analog 1 is statistically different from AHRL1 and analog 4 (p-value=0.05). […], analog 1, and analog 4 are shown to be AhR ligands that are capable of inducing Tregs in vivo. Accordingly, analogs 1 and 4 are expected to have a similar therapeutic effect in a subject as AHRL1 by suppressing an autoimmune response. Additionally, analog 6, analog 7, and other analogs of 11-Cl-BBQ, that are found to be active AhR ligands using the disclosed screening method, are expected to induce Tregs and suppress CTL to provide treatment and/or prevention of immune-mediated diseases.

| IC50 (AhR [3]) | IC50, competitive inhibition of [3H] 3-MC binding to AhR (AhR [3]) | Structure (SMILES) | in vivo serum half-life [1] | XRE-luciferase reporter activity, in words (AhR [2]) | expression of CD25+CTLA-4+ on alloactivated CD4+ donor T cells (donor CD4+ T cells) | expression of CD25+ICOS+CD62Llow on alloactivated CD4+ donor T cells (donor CD4+ T cells) | fold activation of AhR (reporter gene activity) (AhR [2]) | fold lower / less active than TCDD (AhR [3]) |
| --- | --- | --- | --- | --- | --- | --- | --- | --- |
| – | – | O=c1c2cccc3cccc(c32)c2nc3ccc(Cl)cc3n12 [10-Cl-BBQ, 10-chloro-7H-benzimidazo[2,1-a]benzo[de]Iso-quinolin-7-one] | approximately two | activate AhR | – | – | – | – |
| – | – | O=c1c2cccc3cccc(c32)c2nc3cc(Cl)ccc3n12 [11-Cl-BBQ, 11-chloro-7H-benzimidazo[2,1-a]benzo[de]Iso-quinolin-7-one] | approximately two | increased AhR reporter activity as compared to 10-Cl-BBQ alone | – | – | – | – |
| 13.7 nM | – | O=c1c2cccc3cccc(c32)c2nc3ccccc3n12 [analog 1, 7H-Benzimidazo[2,1-a]benzo[de]isoquinolin-7-one] | – | – | statistically different from vehicle | statistically different from vehicle | 13 fold | – |
| – | inactive | NN1C(=O)c2ccc3c(=O)n4c5ccc(Cl)cc5nc4c4ccc(c2c34)C1=O [analog 2, 2-Amino-10-chlorobenzimidazo[2,1-b]benzo[lmn][3,8]phenanthroline-1,3,6(2H)-trione] | – | – | – | – | did not induce reporter activity | – |
| 5.2 nM | – | O=c1c2ccc(Cl)c3cccc(c32)c2nc3cc(Cl)ccc3n12 [analog 4, 4,11-Dichloro-7H-benzimidazo[2,1-a]benzo[de]isoquinolin-7-one] | – | – | statistically different from vehicle | statistically different from vehicle | 19 fold | – |
| 45200 nM | – | O=C(O)c1ccc2c3c1cccc3c(=O)n1c3ccccc3nc21 [analog 5, 7-Oxo-7H-benzimidazo[2,1-a]benzo[de]isoquinoline-3-carboxylic acid] | – | – | – | – | did not induce reporter activity | 1000 fold |

| Structure (SMILES) | IC50 (AhR [3]) | IC50, competitive inhibition of [3H] 3-MC binding to AhR (AhR [3]) | in vivo serum half-life [1] | XRE-luciferase reporter activity, in words (AhR [2]) | expression of CD25+CTLA-4+ on alloactivated CD4+ donor T cells (donor CD4+ T cells) | expression of CD25+ICOS+CD62Llow on alloactivated CD4+ donor T cells (donor CD4+ T cells) | fold activation of AhR (reporter gene activity) (AhR [2]) | fold lower / less active than TCDD (AhR [3]) |
| --- | --- | --- | --- | --- | --- | --- | --- | --- |
| O=c1c2ccc3ccc4cccc5cc(c2c3c45)c2nc3ccc(Cl)cc3n12 [analog 3, 11-Chloro-8H-benzimidazo[2,1-a]phenanthro[3,4,5-defg]isoquinolin-8-one] | 77.3 nM | – | – | – | – | – | 2 fold | 10 fold |
